From patent US11357873B2, “Chiral cyclen compounds and their uses” (THE HONG KONG POLYTECHNIC UNIVERSITY, priority 2016, dated 2022)
Marks after values point to notes of the source that are not given here.

How the values were obtained:
Assay type in all cases: physicochemical
[1] = Absorption and photoluminescence (quantum yield, lifetime, q); parameters: λabs(max): unit not given here; details: for R, I(5D0 → 7F2)/I(5D0 → 7F1): asymmetry ratio, 10 in MeOH; for R, I(5D0 → 7F2)/I(5D0 → 7F1) / λabs(max): room temperature, 11 in DMSO; for ΦDMSO (%): luminescence quantum yield in DMSO; for λabs(max): 10 measured in MeOH
Procedure: (§1) Absorption spectra of complexes were measured with HP UV-8453 spectrophotometer. Steady-state room temperature photoluminescence measurements were performed with an Edinburgh Instrument FLSP920 spectrophotometer equipped with a Xe900 continuous xenon lamp, μF920 microsecond flash lamp and a single photon counting photomultiplier tube. Spectra were corrected with the bundled F900 software. Solution-state measurements were conducted using quartz curettes of 10 mm path length. CPL measurements were conducted on a custom built spectrometer^63 (in Durham University) consisting of a laser driven light source (Energetiq EQ-99 LDLS, spectral range 170 to 2100 nm) coupled to an Acton SP2150 monochromator (600 g/nm, 300 nm Blaze) that allows excitation wavelengths to be selected with a 6 nm FWHM band-pass. The collection of the emitted light was facilitated (90° angle set up, 1 cm path length quartz curette) by a Lock-In Amplifier (Hinds Instruments Signaloc 2100) and Photoelastic Modulator (Hinds Instruments PEM-90). The differentiated light was focused onto an Acton SP2150 monochromator (1200 g/nm, 500 nm Blaze) equipped with a high sensitivity cooled Photo Multiplier Tube (H10723-20 Extended red-multialkali PMT based photosensor (5V)). Spectra were recorded using a 5 spectral average sequence in the range of 570-720 nm with 0.5 nm spectral intervals and 500 μs integration time. The recorded CPL spectrum underwent a 25% Fourier transformation smoothening protocol using Origin 8.0 Software (Origin Labs) to enhance appearance (all calculations were carried out using raw spectral data).
The shift in absorption is caused by electronic communication between the electropositive lanthanide center and the chromophore. […] These are not observed for 11, however, as we believe the steric effect of the planar phenyl ring of the benzyl group could not be alleviated by appropriate rotation, whereas that of the isobutyl group could.
The luminescence quantum yields of the complexes are decent in water and HEPES solution, although they are much higher in DMSO, due to the nonradiative quenching by O—H oscillators of water molecules in the second coordination sphere (Table 6). The intrinsic quantum yields^61—a calculated value evaluating the quantum yield of Eu(III) via direct metal excitation—of the complexes are calculated, and, as expected, the values are very similar, except for 10. The higher value corroborates with the shift in absorption maximum, for which we believe the reason is due to a shorter europium—chromophore distance and better interaction. On the other hand, the sensitization efficiencies of the complexes vary. […] The relatively remarkable ηsens of 13 is attributed to its structural rigidity, as both the tetraaza backbone and the acetate arms are modified with a chrial substituent, i.e., double chirality. The double chirality is also attributed for the increase in luminescence quantum yield compared to that of 12a/12b.

[2] = Circularly polarized luminescence (CPL), dissymmetry factor glum; details: DMSO; wavelength in parentheses in the cell
Procedure: as §1, with “Steady-state” for “Absorption spectra of complexes were measured with HP UV-8453 spectrophotometer. Steady-state”, “time.” for “time. The recorded CPL spectrum underwent a 25% Fourier transformation smoothening protocol using Origin 8.0 Software (Origin Labs) to enhance appearance (all calculations were carried out using raw spectral data).”

[3] = Water solubility of complexes
[4] = Rate of complexation of ligands with metal salts under mild (radiolabeling) conditions; details: pD 6.0-7.0, 50° C., 1H NMR titration

Row | Compound | R, I(5D0 → 7F2)/I(5D0 → 7F1) [1] | q (calculated from ref 60) ([1]; from lifetimes in MeOH and MeOD) | ΦEuEu (%) ([1]; intrinsic quantum yield, calculated value) | τD2O/MeOD ([1]; luminescence lifetime, 5D0 → 7F2 transition, D2O (MeOD for 10)) [ms] | τH2O/MeOH ([1]; luminescence lifetime, 5D0 → 7F2 transition, H2O (MeOH for 10)) [ms] | ΦDMSO (%) [1] [%] | ΦH2O/MeOH (%) ([1]; luminescence quantum yield relative to quinine sulfate in 0.1M H2SO4, H2O (MeOH for 10, insoluble in H2O)) | λabs(max) [1] | ηsens (%) ([1]; sensitization efficiency, calculated according to ref 61) | glum ΔJ = 1 (λ) DMSO [2] | glum ΔJ = 3 (λ) DMSO [2] | water solubility [3] | time to complete complexation with Eu(OTf)3 [4] [min]
1 | COc1cc(OC)c(C#Cc2cc(CN3C[C@H](CC(C)C)N(CC(=O)[O-])C[C@H](CC(C)C)N(CC(=O)[O-])C[C@H](CC(C)C)N(CC(=O)[O-])C[C@@H]3CC(C)C)nc(P(C)(=O)[O-])c2)c(OC)c1.[Eu+3] [Complex 10] | 3.01 | 0.05^g | 36.9 | 1.74 | 1.39 | 45.3 | 11.1 | 364 | 30.1 | −0.11 (591) | −0.12 (657) | poor water solubility | 
2 | COc1cc(OC)c(C#Cc2cc(CN3CC(Cc4ccccc4)N(CC(=O)[O-])CC(Cc4ccccc4)N(CC(=O)[O-])CC(Cc4ccccc4)N(CC(=O)[O-])CC3Cc3ccccc3)nc(P(C)(=O)[O-])c2)c(OC)c1.[Eu+3] (stereo not drawn) [Complex 11] | 2.69 |  |  |  |  | 40.4 |  | 354 |  |  | +0.25 (657) | poor water solubility | 
3 | CC[C@H]1CN(CC(=O)O)[C@@H](CC)CN(CC(=O)O)[C@@H](CC)CN(CC(=O)O)[C@@H](CC)CN1CC(=O)O [Complex L2, 2,2′,2″,2′″-((2S,5S,8S,11S)-2,5,8,11-tetraethyl-1,4,7,10-tetraazacyclododecane-1,4,7,10-tetrayl)tetraacetic acid] |  |  |  |  |  |  |  |  |  |  |  |  | ≤ 5
